From patent US8158657B2, “Heterocycles substituted pyridine derivatives and antifungal agent containing thereof” (Eisai R&D Management Co., Ltd., priority 2005, dated 2012) come the findings set out here.

Assay [1] relates to C. albicans CAF2-1 strain. Kind of assay: Anti-Candida activity, MIC measurement. The settings on record: CAF21STRAIN, C. albicans CAF2-1, RPMI1640, 42-48 hours at 35° C., visual inspection, read-out: Anti-Candida Activity (minimum inhibitory concentration, MIC). The class given is cell-based. A digest of the protocol:
(§1)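 C. albicans CAF2-1 was grown 48 h at 30° C. in SDB and diluted in RPMI1640 to 1.2×10^3 cells/mL. Frozen A. fumigatus Tsukuba was diluted to 4.5×10^3 cells/mL. Compounds, two-fold serially diluted in DMSO from 2.5 mg/mL, were cultured aerobically with fungi for 42-48 h at 35° C.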

Assay [2] deals with A. fumigatus Tsukuba strain. Kind of assay: Anti-Aspergillus activity, MIC measurement. In kind it is cell-based. The settings on record: RPMI1640, 42-48 hours at 35° C., visual inspection, read-out: Anti-Aspergillus Activity (minimum inhibitory concentration, MIC). A digest of the protocol:
as §1

≈ marks a conversion by molar mass, not a printed value. Some results are limits rather than exact numbers.

Consider `Nc1ccc(-c2cc(Cc3ccc(OCc4ccccn4)cc3)no2)cn1` [Example 177, 5-(3-(4-(Pyridin-2-ylmethoxy)-benzyl)-isoxazol-5-yl)-pyridin-2-ylamine], for which the MIC amounted to 0.39 µg/mL (≈ 1.09 µM) in assay [1] and 0.78 µg/mL (≈ 2.18 µM) in assay [2].

Take `COCc1ccc(-c2cc(Cc3ccc(Oc4ccccc4)nc3)no2)c(N)n1` [Example 167]: the MIC amounted to 1.56 µg/mL (≈ 4.02 µM) in assay [1] and 0.78 µg/mL (≈ 2.01 µM) in assay [2].

Take `Nc1ncccc1-c1cc(Cc2ccc(COc3ccccc3)cc2)no1` [Example 86, 3-(3-(4-Phenoxymethyl-benzyl)-isoxazol-5-yl)-pyridin-2-ylamine]: the values for the MIC in assay [1] and in assay [2] were 0.05 µg/mL (≈ 0.14 µM) and 0.2 µg/mL (≈ 0.56 µM), respectively.

For the compound `c1ccc(COc2ccc(Cc3cc(-c4cccnc4)on3)cc2)cc1` [Example 201, 3-(3-(4-Benzyloxy-benzyl)-isoxazol-5-yl)-pyridine], the MIC amounted to 0.78 µg/mL (≈ 2.28 µM) in assay [1] and 0.39 µg/mL (≈ 1.14 µM) in assay [2].

Turning to `Nc1ccc(-c2cc(Cc3ccc(Sc4ccccc4)nc3)no2)c(N)n1` [Example 161, 3-(3-(6-Phenylsulfanyl-pyridin-3-ylmethyl)-isoxazol-5-yl)-pyridin-2,6-diamine], the MIC in assay [1] and in assay [2] was 0.39 µg/mL (≈ 1.04 µM) each time.

For `Nc1ccc(-c2cc(Cc3ccc(Oc4ccccc4)cn3)no2)c(N)n1` [Example 121, 3-(3-(5-Phenoxy-pyridin-2-ylmethyl)-isoxazol-5-yl)-pyridin-2,6-diamine], the MIC in assay [1] stood at 0.39 µg/mL (≈ 1.09 µM); in assay [2], 0.78 µg/mL (≈ 2.17 µM).

Consider `Nc1ccc(-c2cc(Cc3ccc(OCC4CC4)cc3)no2)c(N)n1` [Example 21, 3-(3-(4-Cyclopropylmethoxy-benzyl)-isoxazol-5-yl)-pyridin-2,6-diamine], for which the MIC came to 1.56 µg/mL (≈ 4.64 µM) in assay [1] and 0.78 µg/mL (≈ 2.32 µM) in assay [2].

`COc1cccc(COc2ccc(Cc3cc(-c4cccnc4N)on3)cc2)c1` [Example 98, 3-(3-(4-(3-Methoxy-benzyloxy)-benzyl)-isoxazol-5-yl)-pyridin-2-ylamine]: the MIC in assay [1] and in assay [2] was 0.39 µg/mL (≈ 1.01 µM) throughout.

With `Nc1ncccc1-c1cc(Cc2ccc(Sc3ccccc3)nc2)no1` [Example 97, 3-(3-(6-Phenylsulfanyl-pyridin-3-ylmethyl)-isoxazol-5-yl)-pyridin-2-ylamine], the MIC in assay [1] amounted to 0.39 µg/mL (≈ 1.08 µM); in assay [2] it was 0.2 µg/mL (≈ 0.555 µM).

`Cc1ccc(-c2cc(Cc3ccc(OCc4ccccc4)cc3)no2)c(N)n1` [Example 170, 3-(3-(4-benzyloxy-benzyl)-isoxazol-5-yl)-6-methyl-pyridin-2-ylamine]: the MIC in assay [1] was 0.78 µg/mL (≈ 2.1 µM); in assay [2], 0.39 µg/mL (≈ 1.05 µM).

As for `COCc1ccc(-c2cc(Cc3ccc(Cc4ccc(C)o4)cc3)no2)c(N)n1` [Example 165], the MIC was determined as 0.78 µg/mL (≈ 2 µM) in assay [1] and 1.56 µg/mL (≈ 4.01 µM) in assay [2].

With `Nc1ncccc1-c1cc(Cc2ccc(COc3ccc(F)cn3)cc2)no1` [Example 56], the MIC in assay [1] was 1.56 µg/mL (≈ 4.14 µM); in assay [2] it was more than 25 µg/mL.

For `Nc1ncccc1-c1cc(Cc2ccc(OC3CCCCC3)cc2)no1` [Example 79, 3-(3-(4-Cyclohexyloxy-benzyl)-isoxazol-5-yl)-pyridin-2-ylamine], the values for the MIC in assay [1] and in assay [2] were 1.56 µg/mL (≈ 4.46 µM) and 6.25 µg/mL (≈ 17.9 µM), respectively.

Turning to `Nc1ccc(-c2cc(Cc3ccc(Oc4ccccc4F)nc3)no2)c(N)n1` [Example 134, 3-(3-(6-(2-Fluoro-phenoxy)-pyridin-3-ylmethyl)-isoxazol-5-yl)-pyridin-2,6-diamine], the MIC was 0.39 µg/mL (≈ 1.03 µM) in assay [1] and 0.78 µg/mL (≈ 2.07 µM) in assay [2].

Turning to `CCCCc1ccc(Cc2cc(-c3cccnc3N)on2)cc1` [Example 70, 3-(3-(4-Butyl-benzyl)-isoxazol-5-yl)-pyridin-2-ylamine], the figures for the MIC in assay [1] and in assay [2] were 1.56 µg/mL (≈ 5.07 µM) and 0.39 µg/mL (≈ 1.27 µM), respectively.

Regarding `Nc1ncccc1-c1cc(Cc2cccc(Oc3ccccc3)c2)no1` [Example 64, 3-(3-(3-Phenoxy-benzyl)-isoxazol-5-yl)-pyridin-2-ylamine], the MIC in assay [1] is 0.2 µg/mL (≈ 0.582 µM); in assay [2], 0.78 µg/mL (≈ 2.27 µM).
